# Experimental data as given in patent publication US7635423B2, “Redox potential mediated, heterogeneous, carbon nanotube biosensing” (E. I. du Pont de Nemours and Company, priority 2004, dated 2009).
# “And” between values parts separate entries of the source, which are not always exact repeats. Equal entries are not always repeated. Structures can show the parent of a compound that is named as a salt. Where two headings read alike, the source gives them in different places.
# B1: Oligo52 + Oligo54: target oligonucleotide 52 (SEQ ID NO:4) prehybridized to oligonucleotide 54 (SEQ ID NO:5) with 5′ Alexa Fluor 546 tag (nucleic acid)
# chain 1: GGGGCCACCATCACAGCGTTTTTTTTTTGGGGCCACCATCACAGCG
# chain 2: CGCTGTGATGGTGGCCCC
# modifications: Second strand carries a 5' Alexa Fluor 546 label, further chemistry not given here; the letters are possibly those of the target site
# How the values were obtained:
# [1] = tested on: Trametes versicolor laccase; experiment: Laccase inhibitor kinetics: rate of ABTS^−2 oxidation at varied inhibitor and substrate concentrations; type: biochemical
# Description: High potential quinones/quinols were screened to identify those with characteristics that would be suitable for use as an inhibitor of laccase, to be used in an activity switch.
# Compounds were evaluated by varying the concentrations of inhibitor and substrate (ABTS^−2) and measuring under each condition the rate of ABTS^−2 oxidation. […] Tetrachloro-o-quinol and tetrafluoro-o-quinol, shown in Diagram I, had Kds, of 7-9 μM and 2.5 μM, respectively, as determined from the data in FIG. 20.
# […]
# [2] = tested on: Trametes versicolor laccase; experiment: Laccase assay: ABTS^−2 oxidation followed at 436 nm, with and without NaF; type: biochemical; settings: 1 mM NaF; 5 mM ABTS^−2; 50 mM Glycine pH 3.0
# Description: A stock solution of Trametes versicolor laccase (4.8 mg/ml) was diluted 200,000-fold into 50 mM Glycine, pH 3.0. At time zero, ABTS^−2 (2,2′-azino-bis(3-ethylbenzthiazoline-6-sulfonate) diammonium salt was added at a concentration of 5 mM and the oxidation of ABTS^−2 was followed by monitoring the absorbance change at 436 nm. Shown in FIG. 12 is the result of the laccase assay in the presence and absence of 1 mM NaF. The latter inhibits the laccase activity by 95%.
# [3] = tested on: laccase (Type I copper center); experiment: Laccase 600 nm absorbance peak on inhibitor binding; set-up: species or system Trametes versicolor
# From the text: This conclusion was strengthened by the observation that the binding of tetrachloro-o-quinol to laccase caused a decrease in the amplitude of the laccase 600 nm absorbance peak, dominated by a charge-transfer band involving the Type I copper center and its cysteinyl ligand.
# [4] = tested on: surface-attached oligo 29 (complementary) vs oligo 28 (non-complementary); experiment: Detection of DNA hybridization by CNT device (current vs time at Vg=−0.4 V); settings: 30 μM ABTS^−2, 50 mM glycine pH 3, adduct 50 nM (in DNA)
# Description: Detection of DNA hybridization in a CNT device was assayed as diagramed in FIG. 17. […] In the diagram, two electrodes are indicated, one source electrode (10) and one drain electrode (20), where the electrodes are connected by an electrically conducting path comprising at least one semiconducting carbon nanotube (30). A third electrode (40) generates an electric field to gate the conductance of the CNT. Nucleic acid molecules, functioning as capture moieties (220) are attached to a surface (60) through a silyl butyraldehyde attachment group (230). An oligonucleotide (260) that hybridizes to the capture moiety nucleic acid is attached to the enzyme laccase (270). Laccase oxidizes ABTS^−2 (2,2′ azino-di-(3-ethylbenzthiazoline-sulfonate) at the expense of O2, transferring 4 electrons from 4ABTS^−2 to O2, producing 4ABTS^−1 and H2O. Thus the redox potential of the redox effector (ABTS^−2/ABTS^−1) in solution becomes more positive. This change in effector redox potential oxidizes the CNTs, increasing their p-type conductance. […]
# Electron transport through the CNT was first recorded in the 50 mM glycine pH=3 buffer and immediately after flowing 30 μM ABTS^−2 in the same buffer into the flow cell. […]
# [5] = tested on: surface-bound oligonucleotide 51; experiment: Fluorescence signals following hybridization to surface bound oligo; type: binding; settings: camera exposure 30 s
# Description: To increase the specificity of hybridization, the chips were incubated with Sigma #6429 1× Blocking buffer for 1 h. Excess blocking solution was removed by rinsing with 50 mM Na Acetate pH 5.0 plus 100 mM Na2SO4. Surface-bound oligonucleotide 51 was hybridized separately to: • 1) Oligonucleotide 52 (SEQ ID NO:4), acting as a target sequence, hybridized to oligonucleotide 54 (SEQ ID NO:5). Oligonucleotide 54 has 18 nucleotides complementary to the 3′ end of the target oligonucleotide 52 and a fluorescent tag, Alexa Fluor 546, at its 5′ end. Oligonucleotide 52 has at its 5′ end 18 nucleotides complementary to oligonucleotide 51. • 2) Oligonucleotide 52 (SEQ ID NO:4), acting as a target sequence, hybridized to oligonucleotide 50 (SEQ ID NO:5). Oligonucleotide 50 has the same nucleotide sequence as oligonucleotide 54 and was attached to laccase enzyme (lac/oligo 50) as described below in Example 13, This oligonucleotide also has a Cy3 tag at its 3′ end. All oligonucleotides were purchased from Integrated DNA Technologies, Inc. (Coralville, Iowa). Oligos 52 and 54 in (1), and oligos 52 and 50 in (2) were prehybridized in 50 mM Na Acetate pH 5.0 plus 100 mM Na2SO4 for 10 min at 50° C., then allowed to cool to room temperature before adding to the chip with oligo 51.
# Hybridizations of the surface bound probe, oligo 51, with the samples listed above were carried out in 50 mM Na Acetate pH 5.0 plus 100 mM Na2SO4. Unbound oligonucleotides were removed by rinsing with Washing Buffer A (Arraylt, Telechem International Inc., Sunnyvale, Calif.). Where a laccase/DNA adduct was used for hybridization, 50 mM Na Acetate pH 5.0 plus 100 mM Na2SO4 was used for the wash. After washing, the chip was covered with a cover slip and observed using a fluorescence microscope. The extent of hybridization was evaluated by measuring fluorescence emission from fluorescent-tagged oligonucleotides attached or not to laccase.
# Results of fluorescent signals following hybridizations in 1) and 2) above, using different concentrations of oligos as listed, are given in Table 1. […]
# [6] = plots of reciprocal rate vs inhibitor concentration, FIG. 20, read-out: Kd (dissociation constant of the inhibitor, -Ki intersection)
molecule,measurement,setting,value
"CCn1c(=NN=c2sc3cc(S(=O)(=O)O)ccc3n2CC)sc2cc(S(=O)(=O)O)ccc21 [ABTS^−2, 2,2′-azino-bis(3-ethylbenz-thiazoline-6-sulfonate) diammonium salt, reference compound]",Kd,"[1]; substrate of laccase, read-out: dissociation constant, Kd of the laccase substrate",120 to 240 µM
[F-].[Na+] [NaF],inhibition of laccase activity,[2],95%
Oc1c(O)c(Cl)c(Cl)c(Cl)c1Cl [Tetrachloro-o-quinol],activity as an inhibitor of laccase,[1],effective inhibitor
same,Kd,[1]; [6],7 to 9 µM
same,amplitude of the laccase 600 nm absorbance peak on binding,[3],decrease
Oc1c(Cl)c(Cl)c(O)c(Cl)c1Cl [tetrachloro-p-quinol],activity as an inhibitor of laccase,[1],inactive
Oc1c(O)c(F)c(F)c(F)c1F [tetrafluoro-o-quinol],Kd,[1]; [6],2.5 µM
"oligo28/laccase adduct: oligo 28 (SEQ ID NO:1) attached via 5′ hydrazide to periodate-treated Trametes versicolor laccase (CGCTGTGATGGTGGCCCC; Laccase enzyme attached through a 5' hydrazide, further chemistry not given here)","increase in current, complementary vs non-complementary surface oligonucleotide",[4],3.5 fold
B1,Relative signal amplitude,[5]; 1 nM,39 and 50
same,Relative signal amplitude,[5]; 10 nM,940 and 990
same,Relative signal amplitude,[5]; 100 nM,1140 and 1690
